In patent US10329284B2, “Ester prodrugs of gamma-lactams and their use” (ALLERGAN, INC., priority 2014, dated 2019):

Assay: Aqueous stability upon storage in aqueous solution, evaluated by HPLC
Assay type: physicochemical
Procedure: The compound of Formula (IIIa):
[drawing 31] was selected as an exemplary compound for evaluation of aqueous stability. In particular, the aqueous stability of the compound of Formula (Ma) upon storage in aqueous solution at several temperatures for several weeks was evaluated by HPLC using the following conditions: Column: BioWidePore C18 (SUPELCO), 4.6 mm×25 cm, 5 μm Mobile Phase A: 0.1% (V/V) trifluoroacetic acid (TFA) in di-water, 0.8 micron filtered Mobile Phase B: 100% acetonitrile, 0.8 micron filtered Column temp: Ambient Injection volume: 30 μL UV Detection: 214 nm Flow: 1.0 mL/min Run time: 25 minutes Sample diluent: 50% acetonitrile in di-water Gradient condition: See Table 1

## CCCCC[C@H](O)c1ccc(N2C(=O)CC[C@@H]2CCCc2ccc(C(=O)OC[C@@H](O)CO)s2)cc1 [Formula (IIIa), (S)-2,3-dihydroxypropyl 5-(3-((S)-1-(4-((S)-1-hydroxyhexyl)phenyl)-5-oxopyrrolidin-2-yl)propyl)thiophene-2-carboxylate]
Storage 25° C., T0
  % Recovery vs. T0: 100.0%
Storage 25° C., Week-1
  % Recovery vs. T0: 100.8%
Storage 25° C., Week-2
  % Recovery vs. T0: 100.4%
Storage 25° C., Week-4
  % Recovery vs. T0: 102.6%
Storage 40° C., T0
  % Recovery vs. T0: 100.0%
Storage 40° C., Week-1
  % Recovery vs. T0: 100.6%
Storage 40° C., Week-2
  % Recovery vs. T0: 99.8%
Storage 40° C., Week-4
  % Recovery vs. T0: 101.8%
Storage 60° C., T0
  % Recovery vs. T0: 100.0%
Storage 60° C., Week-1
  % Recovery vs. T0: 99.0%
Storage 60° C., Week-2
  % Recovery vs. T0: 97.4%
Storage 60° C., Week-4
  % Recovery vs. T0: 96.3%

## O=C(OC[C@@H](O)CO)c1ccc(CCC[C@@H]2[C@@H](CCc3cc(Cl)cc(Cl)c3)[C@H](O)C[C@H]2Cl)s1 [Standard]
Storage 25° C., T0
  % Recovery vs. T0: 100.0%
Storage 25° C., Week-1
  % Recovery vs. T0: 100.1%
Storage 25° C., Week-2
  % Recovery vs. T0: 101.0%
Storage 25° C., Week-4
  % Recovery vs. T0: 101.6%
Storage 40° C., T0
  % Recovery vs. T0: 100.0%
Storage 40° C., Week-1
  % Recovery vs. T0: 100.1%
Storage 40° C., Week-2
  % Recovery vs. T0: 100.1%
Storage 40° C., Week-4
  % Recovery vs. T0: 98.6%
Storage 60° C., T0
  % Recovery vs. T0: 100.0%
Storage 60° C., Week-1
  % Recovery vs. T0: 99.3%
Storage 60° C., Week-2
  % Recovery vs. T0: 97.5%
Storage 60° C., Week-4
  % Recovery vs. T0: 95.6%
